# Where a name gives a salt, the structure may show the parent alone.
# Columns and labels:
# Format in all cases: physicochemical
# [1] = Variable Humidity X-Ray Powder Diffraction (VH-XRPD); design: key to VH-XRPD XRPD Results: A = amorphous; 1 = Form 1 Compound 1 hydrogen chloride; PC = poorly crystalline
# Description: (§1) In the examples below, VH-XRPD analysis was carried out on a Philips X'Pert Pro Multipurpose diffractometer equipped with a humidity chamber. The samples were scanned between 4 and 36° 2θ using Cu K radiation (α1λ=1.54060 Å; α2=1.54443 Å; β=1.39225 Å; α1: α2 ratio=0.5; most, if not all, B radiation is removed from the beam using an X-ray mirror) running in Bragg-Brentano geometry (step size 0.008° 2θ) using 40 kV/40 mA generator settings. Measurements were carried out from 2-90% RH, with a final measurement taken at 40% RH.
# as §1, with “VH-XRPD” for “In the examples below, VH-XRPD”, “radiation (α1 λ=1.54060” for “radiation (α1λ=1.54060”, “Å; α1:α2” for “Å; α1: α2”, “all, β” for “all, B”, “from 6-90% relative humidity (RH),” for “from 2-90% RH,”
# [2] = Dynamic Vapor Sorption (DVS)
# Description: (§2) METHOD A: In Example 11, approximately 5-15 mg of sample was placed into a mesh vapor sorption balance pan and loaded into either a DVS Intrinsic or DVS Advantage dynamic vapor sorption balance by Surface Measurement Systems. The sample was subjected to a ramping profile from 40-90% relative humidity (RH) at 10% increments, maintaining the sample at each step until a stable weight had been achieved (dm/dt 0.004%, minimum step length 30 minutes, maximum step length 500 minutes) at 25° C. After completion of the sorption cycle, the sample was dried using the same procedure to 0% RH and then a second sorption cycle back to 40% RH was carried out. Two cycles were performed. The weight change during the sorption/desorption cycles were plotted, allowing the hygroscopic nature of the sample to be determined. XRPD analysis was then carried out on the residual solid.
# as §2, with “B:” for “A:”, “Examples 2A, 3, 14, and 17,” for “Example 11,”, “10-20” for “5-15”, “determined.” for “determined. XRPD analysis was then carried out on the residual solid.”
# as §2, with “Approximately 10-20” for “METHOD A: In Example 11, approximately 5-15”, “RH” for “relative humidity (RH)”, “min,” for “minutes,”, “min)” for “minutes)”, “determined.” for “determined. XRPD analysis was then carried out on the residual solid.”
# [3] = salt screen, XRPD of damp, dried and 40° C./75% RH stored samples (Salt Preparation Methods 1 and 2); design: key: A: amorphous; Crystalline Form 10 mono(hydrogen sulfate); conditions: Sulfuric Acid, 1 equiv.
# Description: Salt Preparation Method 1: Approximately 25 mg of Compound 1 (free base) was weighed out into 1.5 mL screw-cap vials and a stirrer bar was added. For solid counterions, the appropriate amount of acid (1.0 or 2.0 equiv.) was weighed into separate 1.5 mL screw-cap vials. 100 μL of the appropriate solvent system was added to both the Compound 1 and the solid counterions. Stock solutions of liquid counterions were prepared, such that 100 μL contained 1.0 or 2.0 equiv. of acid. See counterion and solvent lists in Table 60 and Table 61 respectively.
# The samples were stirred at 40° C. for 5-10 min and then the acid solutions were added to Compound 1, rinsing out the transfer vial with a further 50 μL of solvent. […] Experiments were temperature cycled between 40° C. and 5° C. (1 h hold; 0.1° C./min ramp/cool) for ca. 24-68 h. Anti-solvent addition (ASA) was carried out to slurries at 5° C. then experiments were heated to 30° C. over 1 h. ASA was carried out at 30° C. or 40° C. where clear solutions or gums were observed.
# Temperature cycling was then continued for ca. 16-69 h, followed by further ASA and temperature cycling if required. Material was isolated at 5° C. and analyzed damp by XRPD. All isolated material was dried under vacuum at ca. 40° C. for ca. 17-91 h then re-analyzed by XRPD. The XRPD plate was stored at 40° C./75% RH for 24-48 h and then samples re-analyzed. Solutions were stored uncapped at ambient temperature to evaporate. Any residual solids were analyzed by XRPD.
# Salt Preparation Method 2: The general procedure adopted in preparing the potential salts is outlined below. A known mass of Compound 1 (free base) and a known volume of the appropriate solvent system were added to 20 mL scintillation vials. The required mol. equiv. of the appropriate counterions were added to the vials as solutions or slurries in the corresponding solvent system.
# The experiments were stirred at 40° C. for ca. 1 h, and then temperature cycled between 40° C. and 5° C. with 0.1° C./min ramp and 1 h hold between each step. Anti-solvent additions and subsequent slurrying at 5° C. were employed in order to facilitate crystallization. […] The damp and dried solids were subsampled and analyzed by XRPD. Where applicable, the dried solids were stored at 40° C./75% RH for 24-48 h in order to improve the crystallinity and/or facilitate solid form conversion to the desired form.
# [4] = TG/DSC and DSC thermal analysis; conditions: listed as Crystalline Form 8 Compound 1 mono(hydrogen sulfate)
# Description: (§3) In the examples below, to measure TGA/DSC, 2-10 mg of material was added into a pre-tared open aluminum pan and loaded into a TA Instruments Discovery SDT 650 Auto—Simultaneous DSC and held at room temperature. The sample was then heated at a rate of 10° C./min from 30° C. to 400° C. during which time the change in sample weight was recorded along with the heat flow response (DSC). Nitrogen was used as the sample purge gas, at a flow rate of 200 cm^3/min.
# (§4) METHOD A: In Example 3, 1-5 mg of material was weighed into an aluminum DSC pan and sealed non-hermetically with a pierced aluminum lid. The sample pan was then loaded into a TA DSC2500 and held at 20° C. Once a stable heat-flow response was obtained, the sample and reference were heated to an upper temperature of 200° C. at a scan rate of 10° C./min and the resulting heat flow response monitored. The sample was held at the upper temperature for 3 minutes, before it was cooled at 10° C./min to 20° C., reheated to the upper temperature at 10° C./min, and then cooled again to 20° C. at the same rate. Nitrogen was used as the purge gas, at a flow rate of 50 cm^3/min.
# as §4, with “B:” for “A:”, “Examples 2A, 14, and 17,” for “Example 3,”, “−80° C. and then” for “20° C.,”, “C./min.” for “C./min, and then cooled again to 20° C. at the same rate.”
# METHOD C: In Example 5, 1-5 mg of a sample were weighed into an aluminum DSC pan and sealed non-hermetically with an aluminum lid. The sample pan was then loaded into a TA Instruments Discovery DSC 2500 differential scanning calorimeter equipped with a RC90 cooler. The sample and reference were heated to 190° C. at a scan rate of 10° C./min and the resulting heat flow response monitored. The sample was re-cooled to −80° C. and then reheated again to 190° C. all at 10° C./min. Nitrogen was used as the purge gas, at a flow rate of 50 cm^3/min.
# as §3, with “2-10” for “In the examples below, to measure TGA/DSC, 2-10”, “Auto-Simultaneous” for “Auto—Simultaneous”
# as §4, with “1-5” for “METHOD A: In Example 3, 1-5”, “min,” for “minutes,”
smiles,measurement,setting,value
COc1cc(C(=O)O[C@@H]2CCCOc3cc(cc(OC)c3OC)C(=O)NCCCN3CCCN(CC2)CC3)cc(OC)c1OC.Cl.Cl,relative humidity range in which the form is retained (VH-XRPD),[1],7-80 % RH
same,VH-XRPD XRPD Results,"[1]; Desorption (1st), 7% RH, hold 60 min",1
same,VH-XRPD XRPD Results,"[1]; Desorption (1st), 10% RH, hold 60 min",1
same,VH-XRPD XRPD Results,"[1]; Desorption (1st), 20% RH, hold 960 min",1
same,VH-XRPD XRPD Results,"[1]; Desorption (1st), 40% RH, hold 60 min",1
same,VH-XRPD XRPD Results,"[1]; Desorption (2nd), 40% RH, hold 60 min",1
same,VH-XRPD XRPD Results,"[1]; Desorption (2nd), 60% RH, hold 60 min",1
same,VH-XRPD XRPD Results,"[1]; Sorption, 10% RH, hold 60 min",1
same,VH-XRPD XRPD Results,"[1]; Sorption, 20% RH, hold 60 min",1
same,VH-XRPD XRPD Results,"[1]; Sorption, 40% RH, hold 60 min",1
same,VH-XRPD XRPD Results,"[1]; Sorption, 60% RH, hold 60 min",1
same,VH-XRPD XRPD Results,"[1]; Sorption, 70% RH, hold 60 min",1
same,VH-XRPD XRPD Results,"[1]; Sorption, 80% RH, hold 60 min",1
same,hygroscopicity,[2]; 25° C.,moderate-high hygroscopicity
same,hysteresis between the sorption and desorption cycles (DVS),[2]; 25° C. (fumarate: at 20% RH),ca. 1.3%
same,post-DVS sample (XRPD / appearance),[2]; DVS at 25° C.,gum-like material
same,moisture uptake (DVS),"[2]; between 0-80% RH, second sorption cycle, 25° C.",18%
same,moisture uptake (DVS),"[2]; between 40-80% RH, first sorption cycle, 25° C.",ca. 5%
same,moisture uptake (DVS),"[2]; between 80-90% RH, 25° C.",9%
COc1cc(C(=O)O[C@@H]2CCCOc3cc(cc(OC)c3OC)C(=O)NCCCN3CCCN(CC2)CC3)cc(OC)c1OC [Compound 1 mono(hydrogen sulfate)],XRPD Analysis 40° C. 75% RH,"[3]; Acetonitrile, AS tBME",A
same,XRPD Analysis Damp,"[3]; Acetonitrile, AS tBME",A
same,XRPD Analysis Dry,"[3]; Acetonitrile, AS tBME",A
same,XRPD Analysis 40° C. 75% RH,"[3]; Ethanol, AS Heptane",A
same,XRPD Analysis Damp,"[3]; Ethanol, AS Heptane",A
same,XRPD Analysis Dry,"[3]; Ethanol, AS Heptane",A
same,XRPD Analysis 40° C. 75% RH,"[3]; Ethyl acetate, AS Heptane",A
same,XRPD Analysis Damp,"[3]; Ethyl acetate, AS Heptane",A
same,XRPD Analysis Dry,"[3]; Ethyl acetate, AS Heptane",A
same,XRPD Analysis 40° C. 75% RH,"[3]; IPA:H2O (75:25% v/v), AS tBME",10
same,XRPD Analysis Damp,"[3]; IPA:H2O (75:25% v/v), AS tBME",A
same,XRPD Analysis Dry,"[3]; IPA:H2O (75:25% v/v), AS tBME",A
same,XRPD Analysis 40° C. 75% RH,"[3]; MEK, AS Heptane",10
same,XRPD Analysis Damp,"[3]; MEK, AS Heptane",A
same,XRPD Analysis Dry,"[3]; MEK, AS Heptane",A
same,XRPD Analysis 40° C. 75% RH,"[3]; THF, AS Heptane",A
same,XRPD Analysis Damp,"[3]; THF, AS Heptane",A
same,XRPD Analysis Dry,"[3]; THF, AS Heptane",A
COc1cc(C(=O)O[C@@H]2CCCOc3cc(cc(OC)c3OC)C(=O)NCCCN3CCCN(CC2)CC3)cc(OC)c1OC.O=S(=O)(O)O,TGA/DSC mass loss,[4],7.2% mass loss
same,"TGA/DSC thermal event, onset",[4]; value before the brackets,144 °C
same,"TGA/DSC thermal event, peak",[4]; value in brackets,158 °C
